Measurements: patent publication US8188059B2, “Compounds and methods for modulating expression of GCGR” (Isis Pharmaceuticals, Inc., priority 2006, dated 2012)
e = 2'-O-(2-methoxyethyl) (MOE); d = 2'-deoxy (DNA)

Experiments:
rat SGLT2 mRNA [1] = assay: Rat SGLT2 mRNA levels in kidney, 1-10-1 gapmers at 250 nmol/kg, Sprague-Dawley rats (Example 14, Table 66); assay type: in vivo; settings: 250 nmol/kg i.p. twice per week for three weeks; Sprague-Dawley rats; kidney
Protocol: The effect of the above 1-10-1gapmers (see Table 64 above) on rat SGLT2 mRNA levels. Data are taken from four experiments in which male Sprague-Dawley rats (170-200 g) were dosed twice per week for three weeks with 250 nmol/kg given by intraperitoneal injection. Rats were sacrificed 48 hours following last administration and evaluated for SGLT2 mRNA levels in kidney. Target levels were determined by RT, real-time PCR as described by other examples herein. PCR results were normalized to an internal ISIS control.

SGLT-2 mRNA [2] = assay: SGLT-2 mRNA levels in kidney of ZDF rats, parent versus 12 nucleobase compound (Example 10); assay type: in vivo, rat
Protocol: In a next study, ZDF rats were dosed intraperitoneally twice per week with 1.5 mg/kg of either ISIS 257016 or ISIS 370717, or with saline at a similar dosing schedule. ISIS 370717 is a 12 nucleobase antisense compound targeted to SGLT-2 nucleic acid comprising the sequence […] […] All cytidine residues are 5-methylcytidines.
The date support that ISIS 257016 is a prodrug having a 12 nucleotide pharmacophore.

mouse SGLT2 mRNA [3] = assay: Mouse SGLT2 mRNA levels in kidney, wing, gap and length variations (Example 12, Table 61); assay type: in vivo; settings: mice
Protocol: ISIS 370717 1-10-1 MOE gapmer was used as a template to make sequence related oligos with varying motifs. The antisense compounds were designed to target different regions of the mouse or rat SGLT2 nucleic acid, using published sequences (GenBank accession number U29881.1, incorporated herein as SEQ ID NO: 1575, and GenBank accession number AJ292928.1, incorporated herein as SEQ ID NO: 1576, respectively).
The antisense compounds were analyzed for their effect on mouse SGLT2 mRNA levels. Data are ranges taken from three experiments in which mice were dosed twice per week for three weeks with 2.5, 0.5 or 0.1 umol/kg of the above MOE gapmers given by intraperitoneal injection. Mice were sacrificed 48 hours following last administration and evaluated for SGLT2 levels in kidney. SGLT2 mRNA levels were determined by RT, real-time PCR as described by other examples herein. PCR results were normalized to an internal ISIS control.

rat SGLT2 mRNA [4] = assay: Rat SGLT2 mRNA levels in kidney, 1-10-1 and 1-10-2 MOE gapmers, Sprague-Dawley rats (Example 13, Table 63); assay type: in vivo
Description: 1-10-1 and 1-10-2 MOE gapmer antisense compounds, provided in Table 62, were designed to target different regions of the mouse or rat SGLT2 RNA. All short antisense compounds in Table 62 are chimeric oligonucleotides (“gapmers”) either 12 or 13 nucleotides in length, composed of a central “gap” segment consisting of ten 2′-deoxynucleotides, which are flanked on the 5′ side by a one-nucleoside “wing” and on the 3′ side by a two or one-nucleotide “wing”. […] All cytidine residues are 5-methylcytidines.
The short antisense compounds were analyzed for their effect on rat SGLT2 mRNA levels. Data are ranges taken from three experiments in which Male Sprague-Dawley rats (170-200 g) were dosed twice per week for three weeks with 450, 150 or 50 nmol/kg of either a 1-10-1 or 1-10-2 MOE gapmer given by intraperitoneal injection. Rats were sacrificed 48 hours following last administration and evaluated for SGLT2 mRNA levels in kidney. Target levels were determined by RT, real-time PCR as described by other examples herein. PCR results were normalized to an internal ISIS control.

mouse SGLT2 mRNA [5] = assay: Mouse SGLT2 mRNA levels in kidney, 1-10-1 MOE gapmers, Balb/c mice (Example 14, Table 65); assay type: in vivo
Protocol: The short antisense compounds were analyzed for their effect on mouse SGLT2 mRNA levels. Data was taken from three experiments in which Male 6-week old Balb/c mice were dosed twice per week for two weeks with 450, 150, or 50 nmol/kg of one of the above 1-10-1 MOE gapmers given by intraperitoneal injection. Mice were sacrificed 48 hours following last administration and evaluated for SGLT2 mRNA levels in kidney. Target levels were determined by RT, real-time PCR as described by other examples herein. PCR results were normalized to an internal ISIS control.

SGLT-2 mRNA [6] = assay: SGLT-2 mRNA levels in kidney of normal rats after intrajejunal administration (Example 11); assay type: in vivo, rat; settings: 100 mg/kg twice per week intrajejunal
human SGLT2 = target: T1, human SGLT2 (Homo sapiens, UniProt P31639); settings: cited from earlier work
T1 construct: host or cells: Xenopus oocytes (heterologous expression after injection)
T1 sequence (P31639 1-672): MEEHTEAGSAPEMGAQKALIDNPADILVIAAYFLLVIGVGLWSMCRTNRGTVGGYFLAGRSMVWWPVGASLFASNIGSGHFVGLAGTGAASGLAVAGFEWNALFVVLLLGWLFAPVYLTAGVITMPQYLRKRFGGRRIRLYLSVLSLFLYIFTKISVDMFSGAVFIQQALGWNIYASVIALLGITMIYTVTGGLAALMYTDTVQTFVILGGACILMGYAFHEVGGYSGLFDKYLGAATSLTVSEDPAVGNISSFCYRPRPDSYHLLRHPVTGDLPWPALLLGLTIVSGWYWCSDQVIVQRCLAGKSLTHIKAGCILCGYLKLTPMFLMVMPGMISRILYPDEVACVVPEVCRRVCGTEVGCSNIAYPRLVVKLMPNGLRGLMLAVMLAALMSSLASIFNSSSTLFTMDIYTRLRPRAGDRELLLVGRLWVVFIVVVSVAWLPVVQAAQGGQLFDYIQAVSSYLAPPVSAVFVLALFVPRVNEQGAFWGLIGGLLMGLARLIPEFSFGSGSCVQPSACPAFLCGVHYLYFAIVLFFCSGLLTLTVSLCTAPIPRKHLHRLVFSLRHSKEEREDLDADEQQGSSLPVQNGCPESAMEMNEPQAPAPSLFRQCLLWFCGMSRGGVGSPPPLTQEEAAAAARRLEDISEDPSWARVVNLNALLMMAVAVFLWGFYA

Compound: ISIS 370717: SGLT2; TAGCCACCAACT 1-10-1 MOE gapmer, phosphorothioate (sugars from the 5' end e1 d10 e1, all phosphorothioate, methylation of C not given here)
- % change in SGLT2 expression relative to saline (rat SGLT2 mRNA [1]): −70%
- pharmacological activity (SGLT-2 mRNA [2]; ZDF rats, 1.5 mg/kg i.p. twice per week, five weeks): similar
- onset of action (SGLT-2 mRNA [2]; compared with ISIS 257016): faster onset of action
- inhibition of SGLT2 expression in kidney (SGLT-2 mRNA [2]; day two after a single dose of 2.8 umoles/kg): ~80%
- % change in SGLT2 expression relative to saline (mouse SGLT2 mRNA [3]; 0.1 umol/kg i.p. twice per week for three weeks): −55%
- % change in SGLT2 expression relative to saline (mouse SGLT2 mRNA [3]; 0.5 umol/kg i.p. twice per week for three weeks): −70%
- % change in SGLT2 expression relative to saline (rat SGLT2 mRNA [4]; 50 nmol/kg i.p. twice per week for three weeks): −55%
- % change in SGLT2 expression relative to saline (rat SGLT2 mRNA [4]; 150 nmol/kg i.p. twice per week for three weeks): −70%
- % change in SGLT2 expression relative to saline (rat SGLT2 mRNA [4]; 450 nmol/kg i.p. twice per week for three weeks): −70%
- % change in SGLT2 expression relative to saline (mouse SGLT2 mRNA [5]; 50 nmol/kg i.p. twice per week for two weeks): −47.5%
- % change in SGLT2 expression relative to saline (mouse SGLT2 mRNA [5]; 150 nmol/kg i.p. twice per week for two weeks): −55%
- % change in SGLT2 expression relative to saline (mouse SGLT2 mRNA [5]; 450 nmol/kg i.p. twice per week for two weeks): −65%
- SGLT-2 mRNA reduced over the controls (SGLT-2 mRNA [6]): more than 80%

Compound: O=C(CCc1ccc(O)cc1)c1c(O)cc(O)cc1O[C@@H]1O[C@H](CO)[C@@H](O)[C@H](O)[C@H]1O [phlorizin]
- transport activity (human SGLT2; You et al., 1995): suppressed

Compound: CO[C@H]1O[C@H](CO)[C@@H](O)[C@H](O)[C@H]1O [α-MeG1c, α-methyl-D-glucopyranoside]
- Km (human SGLT2; sodium-dependent transport (Kanai et al., 1994; You et al., 1995)): 1600 µM
